#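 GI50: concentration for 50% inhibition of growth. TGI: concentration producing complete growth inhibition.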
# Experiments:
# Experiment in all cases: DTP human tumour cell line panel, 384-well format
# [1] = tested on: U251 glioblastoma
# [2] = tested on: BT-549 breast
# [3] = tested on: SNB-19 CNS
# [4] = tested on: NCI-H522 lung
# [5] = tested on: HCT-116 colon
# [6] = tested on: MDA-MB-468 breast
# [7] = tested on: T-47D breast
# [8] = tested on: HL-60(TB) leukemia
# [9] = tested on: PC-3 prostate
# [10] = tested on: KM12 colon
# [11] = tested on: DU-145 prostate
# [12] = tested on: UO-31 renal
# [13] = tested on: NCI-H322M lung
# [14] = tested on: A549 NSCLC
# [15] = tested on: SK-OV-3 ovarian
# [16] = tested on: HS 578T breast
# [17] = tested on: SK-MEL-28 melanoma
# [18] = tested on: A498 renal
# [19] = tested on: HT29 colon
# [20] = tested on: RPMI-8226 leukemia
# [21] = tested on: ACHN renal
# [22] = tested on: OVCAR-8 ovarian
# [23] = tested on: 786-0 renal
# [24] = tested on: HCT-15 colon
# [25] = tested on: MDA-MB-435 melanoma
# [26] = tested on: IGROV1 ovarian
# [27] = tested on: SF-268 CNS
# [28] = tested on: M14 melanoma
# [29] = tested on: MOLT-4 leukemia
# [30] = tested on: EKVX NSCLC
# [31] = tested on: MALME-3M melanoma
# [32] = tested on: MDA-MB-231 breast
# [33] = tested on: TK-10 renal
# [34] = tested on: MCF7 breast
# [35] = tested on: SF-295 CNS
# [36] = tested on: OVCAR-5 ovarian
# [37] = tested on: UACC-257 melanoma
# [38] = tested on: RXF 393 renal
# [39] = tested on: NCI-H23 lung
# [40] = tested on: SW-620 colon
# [41] = tested on: COLO 205 colon
# [42] = tested on: NCI-H226 lung
# [43] = tested on: OVCAR-3 ovarian
# [44] = tested on: UACC-62 melanoma
# [45] = tested on: HOP-62 NSCLC
# [46] = tested on: SN12C renal
# [47] = tested on: SNB-75 CNS
# [48] = tested on: SK-MEL-5 melanoma
# [49] = tested on: HCC-2998 colon
# [50] = tested on: NCI-H460 NSCLC
# [51] = tested on: LOX IMVI melanoma
# [52] = tested on: K-562 leukemia
# [53] = tested on: CCRF-CEM leukemia
# [54] = tested on: NCI/ADR-RES ovarian
# [55] = tested on: SF-539 CNS
# [56] = tested on: HOP-92 NSCLC
# [57] = tested on: CAKI-1 renal
# [58] = tested on: OVCAR-4 ovarian
structure (smiles),measurement,setting,value
C[C@H](c1ccc(F)cc1CCCC(=O)O)N(c1cc(F)ccc1F)S(=O)(=O)c1ccc(Cl)cc1,GI50,[1],19.9 µM
same,TGI,[1],49.4 µM
same,GI50,[2],18.8 µM
same,TGI,[2],42 µM
same,GI50,[3],35.9 µM
same,TGI,[3],> 100 µM
same,GI50,[4],27.9 µM
same,TGI,[4],76.3 µM
same,GI50,[5],20.2 µM
same,TGI,[5],43.8 µM
same,GI50,[6],5.35 µM
same,TGI,[6],30.3 µM
same,GI50,[7],2.26 µM
same,TGI,[7],26.6 µM
same,GI50,[8],19.1 µM
same,TGI,[8],33.6 µM
same,GI50,[9],22.7 µM
same,TGI,[9],66.8 µM
same,GI50,[10],28.7 µM
same,TGI,[10],> 100 µM
same,GI50,[11],28.2 µM
same,TGI,[11],> 100 µM
same,GI50,[12],15.7 µM
same,TGI,[12],33 µM
same,GI50,[13],25.6 µM
same,TGI,[13],> 100 µM
same,GI50,[14],16.1 µM
same,TGI,[14],46.2 µM
same,GI50,[15],32.8 µM
same,TGI,[15],> 100 µM
same,GI50,[16],12.2 µM
same,TGI,[16],33.3 µM
same,GI50,[17],46 µM
same,TGI,[17],> 100 µM
same,GI50,[18],20.2 µM
same,TGI,[18],69.3 µM
same,GI50,[19],31.3 µM
same,TGI,[19],> 100 µM
same,GI50,[20],19.4 µM
same,TGI,[20],36.6 µM
same,GI50,[21],30.4 µM
same,TGI,[21],> 100 µM
same,GI50,[22],32.1 µM
same,TGI,[22],> 100 µM
same,GI50,[23],28.9 µM
same,TGI,[23],> 100 µM
same,GI50,[24],22.4 µM
same,TGI,[24],95.5 µM
same,GI50,[25],24 µM
same,TGI,[25],53.8 µM
same,GI50,[26],30.5 µM
same,TGI,[26],> 100 µM
same,GI50,[27],14 µM
same,TGI,[27],34.2 µM
same,GI50,[28],21.4 µM
same,TGI,[28],70.5 µM
same,GI50,[29],11.7 µM
same,TGI,[29],24.2 µM
same,GI50,[30],21.6 µM
same,TGI,[30],63.1 µM
same,GI50,[31],23.7 µM
same,TGI,[31],> 100 µM
same,GI50,[32],34 µM
same,TGI,[32],> 100 µM
same,GI50,[33],31.1 µM
same,TGI,[33],> 100 µM
same,GI50,[34],22.7 µM
same,TGI,[34],88.9 µM
same,GI50,[35],17.7 µM
same,TGI,[35],49.7 µM
same,GI50,[36],38.5 µM
same,TGI,[36],> 100 µM
same,GI50,[37],13.6 µM
same,TGI,[37],68.4 µM
same,GI50,[38],27.9 µM
same,TGI,[38],> 100 µM
same,GI50,[39],14.9 µM
same,TGI,[39],41.6 µM
same,GI50,[40],32.8 µM
same,TGI,[40],> 100 µM
same,GI50,[41],30.1 µM
same,TGI,[41],> 100 µM
same,GI50,[42],25.2 µM
same,TGI,[42],76 µM
same,GI50,[43],17.9 µM
same,TGI,[43],38 µM
same,GI50,[44],16.9 µM
same,TGI,[44],40.4 µM
same,GI50,[45],16.4 µM
same,TGI,[45],37.1 µM
same,GI50,[46],28.8 µM
same,TGI,[46],> 100 µM
same,GI50,[47],26.2 µM
same,TGI,[47],> 100 µM
same,GI50,[48],13.1 µM
same,TGI,[48],29.7 µM
same,GI50,[49],1.41 µM
same,TGI,[49],16.3 µM
same,GI50,[50],17.2 µM
same,TGI,[50],33.8 µM
same,GI50,[51],19 µM
same,TGI,[51],45.6 µM
same,GI50,[52],27.1 µM
same,TGI,[52],> 100 µM
same,GI50,[53],12.3 µM
same,TGI,[53],26.5 µM
same,GI50,[54],32 µM
same,TGI,[54],> 100 µM
same,GI50,[55],23.8 µM
same,TGI,[55],66.2 µM
same,GI50,[56],13.5 µM
same,TGI,[56],44.6 µM
same,GI50,[57],45.9 µM
same,TGI,[57],> 100 µM
same,GI50,[58],26 µM
same,TGI,[58],> 100 µM
